Publication PMC4026528 (PLoS ONE, 2014)

Legend:
Assay type in all cases: cell-based, human
[1] = test system: U2OS (osteosarcoma) cells; test: Soft agar assay (anchorage-independent growth), U2OS; details: Homo sapiens
Method: (§1) Soft agar assay and analysis was carried out as previously described. For scratch assay, confluent monolayer of U2OS and HT-1080 cells were subjected to scratch using a sterile pipette tip. Wounded monolayers were washed to remove debris and incubated with SEN461 at different concentrations for 20 hours. After the incubation period, images were taken under an Axiovert 200M (Zeiss) microscope equipped with a CCD camera, and the gap width was measured using MetaMorph 6.3 software (Universal Imaging Corp.) to calculate the area covered by cells (pixels unit). The tube formation assay was performed using growth factor-reduced Matrigel from BD (BD Biosciences; San Jose, CA, USA). Matrigel was thawed overnight at 4°C and was diluted (1∶1) with phenol red-free DMEM without serum. 100 µl of the diluted matrigel was used to coat the wells of a 96 well plate and was allowed to polymerize for 2 hours at 37°C. After equilibrating the gel with the complete growth medium, 15×10^3 cells were seeded in each well and incubated for 20 hours. The tube formation was monitored under a phase contrast microscope (Axiovert 200, Zeiss) and imaged using MetaMorph system (Universal Imaging Corp).

[2] = test system: HT-1080 (fibrosarcoma) cells; test: Soft agar assay (anchorage-independent growth), HT-1080; details: Homo sapiens
Method: as §1

HT-1080 cells = test: Tube formation assay, HT-1080
Method: as §1, with “After equilibrating the gel with the complete growth medium, 15×10^3 cells were seeded in each well and incubated for 20 hours.” left out

[3] = test system: Wnt target gene mRNA in HT-1080 cells; test: Quantitative RT-PCR of Wnt target genes in HT-1080; details: HT-1080, overnight, 10 µmol/L
Method: RNA extraction and quantitative RT-PCR (qPCR) expression analysis was performed as described previously. Gene expression analysis was performed using the human housekeeping gene RPL13A. Primers for the hAXIN2, hCDC25A, hc-MYC, hFZD4, hDVL2, hCSNK1G and hVEGF-A were the following: Fw: 5′-CAAGGGCCAGGTCACCAA-3′ Rv: 5′-CCCCCAACCCATCTTCGT-3′; Fw: 5′-[…]-3′ Rv: 5′-[…]-3′; Fw: 5′-GGCTCCTGGCAAAAGGTCA-3′ Rv: 5′-[…]-3′; Fw: 5′-[…]-3′ Rv: 5′-[…]-3′; Fw: 5′-[…]-3′ Rv: 5′-GTCTCCCCGCTCATTGCTC-3′; Fw: 5′-[…]-3′ Rv: 5′-[…]-3′; Fw: 5′-[…]-3′ Rv: 5′-[…]-3′.

[4] = test system: Axin1, c-Myc, p21 protein in HT-1080 cells; test: Western blotting in HT-1080; details: HT-1080, overnight

IC50 [1] | IC50 [2] | SMILES | tubule-formation activity (HT-1080 cells; HT-1080, 24 hours exposure, vs DMSO) | c-MYC mRNA [3] | c-Myc protein level [4] | tubule-formation activity (HT-1080 cells; HT-1080, 3 µmol/L, data not shown)
200 nM | 1900 nM | Oc1nc(-c2ccc(C(F)(F)F)cc2)nc2c1CSCC2 [XAV939, reference compound] | did not produce any change | comparable activity | did not affect c-Myc protein level | 
 |  | Cc1ccc(C(=O)Nc2ccc(S(=O)(=O)O)c3cc(S(=O)(=O)O)cc(S(=O)(=O)O)c23)cc1NC(=O)c1cccc(NC(=O)Nc2cccc(C(=O)Nc3cc(C(=O)Nc4ccc(S(=O)(=O)O)c5cc(S(=O)(=O)O)cc(S(=O)(=O)O)c45)ccc3C)c2)c1 [Suramin] |  |  |  | complete abrogation of tubule formation
